Source: paper PMC11087525 (Scientific Reports, 2024)

Tests used:
[1] = system: SARS-CoV-2 Delta variant; format: cell-based
[2] = system: SARS-CoV-2 Delta variant; details: cited from earlier work

CC(C)(C)[C@H](NC(=O)C(F)(F)F)C(=O)N1C[C@H]2[C@@H]([C@H]1C(=O)N[C@H](C#N)C[C@@H]1CCNC1=O)C2(C)C [NMR, nirmatrelvir]
EC90 for the Delta variant multiplied by a factor of 3 [1]: 0.3 µg/mL | EC90 for the Delta variant ([2]; conversion of 0.149 µM): ~ 100 ng/mL | EC90 ([2]; used in PBPK simulation study): 149 nM
